According to PMC10850145, “Hormonal steroids induce multidrug resistance and stress response genes in Neisseria gonorrhoeae by binding to MtrR” (Nature Communications, 2024):
Values joined by “and” are separate entries in the source; they are usually repeats but may differ in a detail not shown here. Equal entries are not always repeated. “Also recorded” adds a separate entry of the source. Where two headings read alike, the source gives them in different places.

Experiments:
MtrR = biological target: T1, MtrR (Neisseria gonorrhoeae, UniProt P39897); test: Isothermal titration calorimetry, ligand binding to MtrR WT; conditions: ITC; for Kd: equilibrium dissociation constant (Kd), MtrR WT, 25 °C, 1% MeOH
T1 construct: Hexa-histidine tag with TEV protease cleavage site (N, cleaved yes); made in house; host or cells: E. coli Rosetta Gami B(DE3) pLysS

[1] = biological target: T2, MtrR binding to mtrCDE operator (21mer) (Neisseria gonorrhoeae, UniProt P39897); test: Fluorescence polarization based DNA binding assay, mtrCDE operator; conditions: mtrCDE 21mer + 125 µM steroid
T2 construct: Hexa-histidine tag with TEV protease cleavage site (N, cleaved yes); made in house; host or cells: E. coli Rosetta Gami B(DE3) pLysS
Procedure: (§1) Fluorescence polarization based-DNA binding data were collected using a Panvera Beacon 2000 fluorescence polarization system (Invitrogen) and analyzed with Prism (Graphpad Software 9, 10). Purified MtrR was buffer exchanged into “DNA” binding buffer (150 mM NaCl, 20 mM Tris-HCl pH 7.5, 2.5% glycerol, 1 mM TCEP). […] The reported oligoduplexes containing the rpoH and mtrCDE binding site differ in lengths, 27mer and 21mer, respectively[17],[21]. […] BSA and dI-dC are included as carriers and to control for nonspecific DNA binding. Samples were excited at 490 nm and polarized emissions measured at 530 nm. Controls were run with no protein (DNA ± methanol, hormonal steroids) to ensure that millipolarization values were not affected by experimental conditions alone. The binding affinity of protein for DNA was determined using the following equation: P = Pf + (Pb – Pf) [M] / (Kd + [M]) where P is the measured polarization, Pf is the polarization of free DNA, Pb is the polarization of the completely bound DNA, Kd is the equilibrium dissociation constant, and M is the concentration of protein. Pb and Kd were determined by nonlinear least-squares analysis. At least three independent experimental measurements were averaged for each reported binding constant.

FA19 mtrD::kan (KH14) = test: MIC of steroidal hormones on GC agar, FA19 mtrD::kan (KH14); type: cell-based, Neisseria gonorrhoeae; conditions: for MIC: Neisseria gonorrhoeae; for effect of mtrD deletion on MIC: vs FA19
Procedure: (§2) To determine the minimal inhibitory concentrations (MICs) by the steroidal hormones and their effect on antimicrobial susceptibility, 5 x 10^5 CFU and 1:5 serial dilutions of gonococcal strains were spotted on GC agar plates containing different concentrations of antibiotics and/or hormones as indicated. Antimicrobial susceptibility was assessed after 24 h incubation.
(§3) Table S1. Steroidal hormones are substrates of the MtrCDE efflux pump
(§4) Progesterone Testosterone
(§5) *Minimal inhibition concentration is defined by the lowest concentration at which visible growth is […]

[2] = biological target: T3, MtrR binding to rpoH operator (27mer) (Neisseria gonorrhoeae, UniProt P39897); test: Fluorescence polarization based DNA binding assay, rpoH operator; conditions: rpoH 27mer + 125 µM steroid
T3 construct: Hexa-histidine tag with TEV protease cleavage site (N, cleaved yes); made in house; host or cells: E. coli Rosetta Gami B(DE3) pLysS
Procedure: as §1

MtrR D171A = biological target: T4, MtrR D171A (Neisseria gonorrhoeae, UniProt P39897, D171A); test: biochemical; type: binding
T4 construct: Hexa-histidine tag with TEV protease cleavage site (N, cleaved yes); made in house; host or cells: E. coli Rosetta Gami B(DE3) pLysS

gonococcal strain FA19 = test: MIC of steroidal hormones on GC agar, strain FA19; type: cell-based; conditions: Neisseria gonorrhoeae
Procedure: as §2, §3, §4, §5

MtrR R176E = biological target: T5, MtrR R176E (Neisseria gonorrhoeae, UniProt P39897, R176E); test: biochemical; type: binding
T5 construct: Hexa-histidine tag with TEV protease cleavage site (N, cleaved yes); made in house; host or cells: E. coli Rosetta Gami B(DE3) pLysS

N. gonorrhoeae = test system: N. gonorrhoeae; parameters: method as in PMID 816438; conditions: cited from earlier work

T1 sequence (P39897 whole entry): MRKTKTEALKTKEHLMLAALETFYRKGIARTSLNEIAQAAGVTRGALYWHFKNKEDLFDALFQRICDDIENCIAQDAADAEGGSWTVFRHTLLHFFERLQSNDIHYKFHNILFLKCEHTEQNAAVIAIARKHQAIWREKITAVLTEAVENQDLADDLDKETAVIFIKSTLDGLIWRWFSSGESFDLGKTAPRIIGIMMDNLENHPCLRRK
T2 sequence (P39897 whole entry): as above
T3 sequence (P39897 whole entry): as above
T5 sequence (P39897 whole entry R176E): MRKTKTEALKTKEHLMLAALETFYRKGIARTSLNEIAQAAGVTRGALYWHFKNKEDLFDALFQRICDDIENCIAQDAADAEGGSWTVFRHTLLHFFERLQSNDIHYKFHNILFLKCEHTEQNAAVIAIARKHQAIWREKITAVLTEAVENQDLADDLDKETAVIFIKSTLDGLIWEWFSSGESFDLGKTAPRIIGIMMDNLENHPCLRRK
T4 sequence (P39897 whole entry D171A): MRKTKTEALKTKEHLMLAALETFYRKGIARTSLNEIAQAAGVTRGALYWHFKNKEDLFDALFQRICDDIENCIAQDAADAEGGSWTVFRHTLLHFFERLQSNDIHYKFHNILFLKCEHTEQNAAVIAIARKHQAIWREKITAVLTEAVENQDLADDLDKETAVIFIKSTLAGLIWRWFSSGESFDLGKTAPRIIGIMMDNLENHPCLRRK

In the case of `CC(=O)[C@H]1CC[C@H]2[C@@H]3CCC4=CC(=O)CC[C@]4(C)[C@H]3CC[C@]12C` [Progesterone, progesterone], the Kd (MtrR) is reported as 2.75 ± 0.7 µM, the “fluorescence polarization, MtrR titration” value (“fluorescence polarization” below) ([1]; MtrR WT dimer 0.00 nM) is reported as 0.00 mP and the “fluorescence polarization” value ([1]; MtrR WT dimer 3.83 nM) is reported as 3.14 mP. The “fluorescence polarization” value ([1]; MtrR WT dimer 8.85 nM) was 6.47 mP, the “fluorescence polarization” value ([1]; MtrR WT dimer 11.32 nM) was 7.37 mP and 3.83 mP and 6.23 mP and the “fluorescence polarization” value ([1]; MtrR WT dimer 16.21 nM) was 8.61 mP and 4.53 mP and 7.86 mP. The “fluorescence polarization” value ([1]; MtrR WT dimer 35.50 nM) was 11.01 mP and 7.99 mP and 10.09 mP, the “fluorescence polarization” value ([1]; MtrR WT dimer 73.35 nM) was 14.94 mP and 12.16 mP and 13.46 mP and the “fluorescence polarization” value ([1]; MtrR WT dimer 110.67 nM) was 19.14 mP and 15.56 mP and 17.23 mP. The “fluorescence polarization” value ([1]; MtrR WT dimer 147.65 nM) was 23.64 mP and 19.79 mP and 21.69 mP, the “fluorescence polarization” value ([1]; MtrR WT dimer 220.59 nM) was 29.74 mP and 25.09 mP and 27.23 mP and the “fluorescence polarization” value ([1]; MtrR WT dimer 292.55 nM) was 32.91 mP and 28.39 mP and 31.63 mP. The “fluorescence polarization” value ([1]; MtrR WT dimer 363.86 nM) was 35.71 mP and 31.19 mP and 34.99 mP, the “fluorescence polarization” value ([1]; MtrR WT dimer 434.54 nM) was 39.37 mP and 32.93 mP and 37.49 mP and the “fluorescence polarization” value ([1]; MtrR WT dimer 504.61 nM) was 40.97 mP and 36.33 mP and 40.13 mP. The “fluorescence polarization” value ([1]; MtrR WT dimer 574.07 nM) was 43.64 mP and 38.96 mP and 42.59 mP, the “fluorescence polarization” value ([1]; MtrR WT dimer 711.46 nM) was 46.37 mP and 42.63 mP and 45.23 mP and the “fluorescence polarization” value ([1]; MtrR WT dimer 848.00 nM) was 49.37 mP and 45.06 mP and 48.53 mP. For the same compound, the MIC (FA19 mtrD::kan (KH14)) was 20 µg/mL and 64 µM, the “effect of mtrD deletion on MIC” value (FA19 mtrD::kan (KH14)) was “lowered” and the “fluorescence polarization” value ([2]; MtrR WT dimer 0.00 nM) was 0.00 mP. The “fluorescence polarization” value ([2]; MtrR WT dimer 25.90 nM) was 11.91 mP and 9.75 mP and 10.51 mP, the “fluorescence polarization” value ([2]; MtrR WT dimer 35.50 nM) was 14.38 mP and 9.72 mP and 14.14 mP and the “fluorescence polarization” value ([2]; MtrR WT dimer 54.52 nM) was 18.81 mP and 15.99 mP and 17.44 mP. For the same compound, the “fluorescence polarization” value ([2]; MtrR WT dimer 73.35 nM) was 23.45 mP and 18.32 mP and 20.67 mP, the “fluorescence polarization” value ([2]; MtrR WT dimer 110.67 nM) was 27.11 mP and 21.95 mP and 25.01 mP and the “fluorescence polarization” value ([2]; MtrR WT dimer 147.65 nM) was 29.38 mP and 25.62 mP and 28.21 mP. The “fluorescence polarization” value ([2]; MtrR WT dimer 220.59 nM) was 32.78 mP and 29.35 mP and 32.41 mP, the “fluorescence polarization” value ([2]; MtrR WT dimer 292.55 nM) was 36.31 mP and 32.79 mP and 35.11 mP and the “fluorescence polarization” value ([2]; MtrR WT dimer 363.86 nM) was 36.91 mP and 35.45 mP and 37.94 mP. For the same compound, the “fluorescence polarization” value ([2]; MtrR WT dimer 434.54 nM) was 40.61 mP and 38.05 mP and 40.54 mP, the “fluorescence polarization” value ([2]; MtrR WT dimer 504.61 nM) was 41.81 mP and 39.19 mP and 42.17 mP and the “fluorescence polarization” value ([2]; MtrR WT dimer 574.07 nM) was 44.75 mP and 41.42 mP and 44.21 mP. The Kd (MtrR D171A) was 8.36 ± 2.5 µM, the MIC (gonococcal strain FA19; strain FA19, GC agar, 24 h, read-out: MIC) was 127 µM and the MIC (gonococcal strain FA19; strain FA19, GC agar, read-out: MIC) was 40 µg/mL. For the same compound, the Kd (MtrR R176E) was 8.43 ± 8.3 µM and the “growth inhibition of N. gonorrhoeae” value (N. gonorrhoeae; listed as PTR) was “arrest N. gonorrhoeae growth; also recorded: most effective in growth inhibition”.

For `C[C@]12CC[C@H]3[C@@H](CCC4=CC(=O)CC[C@@]43C)[C@@H]1CC[C@@H]2O` [Testosterone, testosterone], the “binding stoichiometry N (ligand per MtrR)” value (MtrR) was ~ 1, the “binding stoichiometry N (ligand per MtrR)” value (MtrR; listed as TES) was “one molecule of steroid per MtrR monomer” and the Kd (MtrR) was 2.26 µM and ~2.26 µM. For the same compound, the “fluorescence polarization” value ([1]; MtrR WT dimer 0.00 nM) was 0.00 mP, the “fluorescence polarization” value ([1]; MtrR WT dimer 6.35 nM) was 2.61 mP and 1.77 mP and 1.84 mP and the “fluorescence polarization” value ([1]; MtrR WT dimer 11.32 nM) was 5.67 mP and 3.54 mP and 4.04 mP. The “fluorescence polarization” value ([1]; MtrR WT dimer 16.21 nM) was 6.61 mP and 4.54 mP and 5.44 mP, the “fluorescence polarization” value ([1]; MtrR WT dimer 35.50 nM) was 8.17 mP and 7.34 mP and 6.54 mP and the “fluorescence polarization” value ([1]; MtrR WT dimer 73.35 nM) was 11.31 mP and 10.71 mP and 11.67 mP. For the same compound, the “fluorescence polarization” value ([1]; MtrR WT dimer 110.67 nM) was 14.21 mP and 12.44 mP and 14.87 mP, the “fluorescence polarization” value ([1]; MtrR WT dimer 147.65 nM) was 16.64 mP and 15.47 mP and 17.31 mP and the “fluorescence polarization” value ([1]; MtrR WT dimer 220.59 nM) was 21.64 mP and 18.07 mP and 21.37 mP. For the same compound, the “fluorescence polarization” value ([1]; MtrR WT dimer 292.55 nM) was 24.51 mP and 22.87 mP and 24.21 mP, the “fluorescence polarization” value ([1]; MtrR WT dimer 363.86 nM) was 27.31 mP and 26.01 mP and 26.94 mP and the “fluorescence polarization” value ([1]; MtrR WT dimer 434.54 nM) was 29.54 mP and 28.57 mP and 30.57 mP. For the same compound, the “fluorescence polarization” value ([1]; MtrR WT dimer 504.61 nM) was 32.14 mP and 30.37 mP and 33.41 mP, the “fluorescence polarization” value ([1]; MtrR WT dimer 574.07 nM) was 34.11 mP and 32.41 mP and 35.04 mP and the “fluorescence polarization” value ([1]; MtrR WT dimer 711.46 nM) was 38.41 mP and 36.24 mP and 38.57 mP. The “fluorescence polarization” value ([1]; MtrR WT dimer 848.00 nM) was 41.31 mP and 39.27 mP and 42.47 mP, the MIC (FA19 mtrD::kan (KH14)) was 40 µg/mL and 139 µM and the “effect of mtrD deletion on MIC” value (FA19 mtrD::kan (KH14)) was “lowered”. For the same compound, the “fluorescence polarization” value ([2]; MtrR WT dimer 0.00 nM) was 0.00 mP, the “fluorescence polarization” value ([2]; MtrR WT dimer 6.35 nM) was 2.56 mP and 4.77 mP and 2.79 mP and the “fluorescence polarization” value ([2]; MtrR WT dimer 8.85 nM) was 4.03 mP and 4.45 mP. For the same compound, the “fluorescence polarization” value ([2]; MtrR WT dimer 11.32 nM) was 4.86 mP and 6.47 mP and 4.69 mP, the “fluorescence polarization” value ([2]; MtrR WT dimer 16.21 nM) was 6.33 mP and 8.37 mP and 6.42 mP and the “fluorescence polarization” value ([2]; MtrR WT dimer 25.90 nM) was 9.43 mP and 8.25 mP. The “fluorescence polarization” value ([2]; MtrR WT dimer 35.50 nM) was 11.51 mP and 12.65 mP and 12.17 mP, the “fluorescence polarization” value ([2]; MtrR WT dimer 54.52 nM) was 15.46 mP and 15.52 mP and the “fluorescence polarization” value ([2]; MtrR WT dimer 73.35 nM) was 17.83 mP and 19.00 mP and 18.19 mP. For the same compound, the “fluorescence polarization” value ([2]; MtrR WT dimer 110.67 nM) was 21.89 mP and 23.20 mP and 21.59 mP, the “fluorescence polarization” value ([2]; MtrR WT dimer 147.65 nM) was 25.36 mP and 23.99 mP and the “fluorescence polarization” value ([2]; MtrR WT dimer 220.59 nM) was 26.93 mP and 29.97 mP and 27.52 mP. For the same compound, the “fluorescence polarization” value ([2]; MtrR WT dimer 292.55 nM) was 30.66 mP and 32.37 mP and 31.12 mP, the “fluorescence polarization” value ([2]; MtrR WT dimer 363.86 nM) was 32.43 mP and 34.37 mP and 33.42 mP and the “fluorescence polarization” value ([2]; MtrR WT dimer 434.54 nM) was 34.93 mP and 38.17 mP and 35.29 mP. The “fluorescence polarization” value ([2]; MtrR WT dimer 504.61 nM) was 36.76 mP and 39.37 mP and 37.09 mP, the “fluorescence polarization” value ([2]; MtrR WT dimer 574.07 nM) was 38.43 mP and 40.67 mP and 39.72 mP and the Kd (MtrR D171A) was 30.9 ± 24.2 µM. It also gave an MIC (gonococcal strain FA19; FA19) of 160 µg/mL, an MIC (gonococcal strain FA19; FA19, 24 h) of 555 µM and a Kd (MtrR R176E) of 3.73 ± 0.4 µM. The “growth inhibition of N. gonorrhoeae” value (N. gonorrhoeae) was “arrest N. gonorrhoeae growth”.
